Assay results as given in PubChem BioAssay (NCI).
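Briefly, cells in 96-well plates were exposed to five compound concentrations for 48 h, and endpoints were estimated by linear interpolation. TGI marks complete inhibition of growth.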

Columns and labels:
Test in all cases: NCI tumour cell line growth inhibition, 48 h
[1] = system: 786-0 renal
[2] = system: A498 renal
[3] = system: A549 NSCLC
[4] = system: ACHN renal
[5] = system: CAKI-1 renal
[6] = system: CCRF-CEM leukemia
[7] = system: COLO 205 colon
[8] = system: DLD-1 colon
[9] = system: DMS 114 small cell lung
[10] = system: DMS 273 small cell lung
[11] = system: HCT-116 colon
[12] = system: HCT-15 colon
[13] = system: HL-60(TB) leukemia
[14] = system: HOP-18 NSCLC
[15] = system: HOP-62 NSCLC
[16] = system: HOP-92 NSCLC
[17] = system: HT29 colon
[18] = system: IGROV1 ovarian
[19] = system: K-562 leukemia
[20] = system: KM12 colon
[21] = system: KM20L2 colon
[22] = system: LOX IMVI melanoma
[23] = system: LXFL 529 NSCLC
[24] = system: M14 melanoma
[25] = system: M19-MEL melanoma
[26] = system: MALME-3M melanoma
[27] = system: MOLT-4 leukemia
[28] = system: NCI-H226 lung
[29] = system: NCI-H23 lung
[30] = system: NCI-H460 lung
[31] = system: NCI-H522 lung
[32] = system: OVCAR-3 ovarian
[33] = system: OVCAR-4 ovarian
[34] = system: OVCAR-8 ovarian
[35] = system: RPMI-8226 leukemia
[36] = system: RXF 393 renal
[37] = system: SF-268 CNS
[38] = system: SK-MEL-2 melanoma
[39] = system: SK-MEL-28 melanoma
[40] = system: SK-MEL-5 melanoma
[41] = system: SK-OV-3 ovarian
[42] = system: SN12C renal
[43] = system: SNB-19 CNS
[44] = system: SNB-75 CNS
[45] = system: SW-620 colon
[46] = system: TK-10 renal
[47] = system: U251 CNS
[48] = system: UACC-257 melanoma
[49] = system: UACC-62 melanoma
[50] = system: UO-31 renal
[51] = system: XF 498 CNS
[52] = system: EKVX NSCLC
[53] = system: HCC-2998 colon
[54] = system: SF-295 CNS
[55] = system: SF-539 CNS
[56] = system: SNB-78 CNS
[57] = system: SR leukemia

Cc1ccccc1NC(=O)C(=O)c1c(O)c2ccc(O)cc2oc1=O
TGI [1]: > 100 µM | TGI [2]: > 100 µM | TGI [3]: > 100 µM | TGI [4]: > 100 µM | TGI [5]: > 100 µM | TGI [6]: > 100 µM | TGI [7]: > 100 µM | TGI [8]: > 100 µM | TGI [9]: > 100 µM | TGI [10]: > 100 µM | TGI [11]: > 100 µM | TGI [12]: > 100 µM | TGI [13]: > 100 µM | TGI [14]: > 100 µM | TGI [15]: > 100 µM | TGI [16]: > 100 µM | TGI [17]: > 100 µM | TGI [18]: > 100 µM | TGI [19]: > 100 µM | TGI [20]: > 100 µM | TGI [21]: > 100 µM | TGI [22]: > 100 µM | TGI [23]: > 100 µM | TGI [24]: > 100 µM | TGI [25]: > 100 µM | TGI [26]: > 100 µM | TGI [27]: > 100 µM | TGI [28]: > 100 µM | TGI [29]: > 100 µM | TGI [30]: > 100 µM | TGI [31]: > 100 µM | TGI [32]: > 100 µM | TGI [33]: > 100 µM | TGI [34]: > 100 µM | TGI [35]: > 100 µM | TGI [36]: > 100 µM | TGI [37]: > 100 µM | TGI [38]: > 100 µM | TGI [39]: > 100 µM | TGI [40]: > 100 µM | TGI [41]: > 100 µM | TGI [42]: > 100 µM | TGI [43]: > 100 µM | TGI [44]: > 100 µM | TGI [45]: > 100 µM | TGI [46]: > 100 µM | TGI [47]: > 100 µM | TGI [48]: > 100 µM | TGI [49]: > 100 µM | TGI [50]: > 100 µM | TGI [51]: > 100 µM

CCC12C=CCN3CCC4(c5cc(C6(C(=O)OC)CCCCCc7c6[nH]c6ccccc76)c(OC)cc5N(C)C4C(O)(C(=O)OC)C1OC(C)=O)C32 (centres undefined)
TGI [1]: 4.89 µM | TGI [2]: 7.39 µM | TGI [3]: 11.7 µM | TGI [4]: 3.3 µM | TGI [5]: 7.46 µM | TGI [6]: 5.49 µM | TGI [7]: 8.85 µM | TGI [9]: 7.09 µM | TGI [52]: 14 µM | TGI [53]: 3.97 µM | TGI [11]: 13 µM | TGI [12]: 5.29 µM | TGI [13]: 5.81 µM | TGI [14]: 4.86 µM | TGI [15]: 13.2 µM | TGI [16]: 4.76 µM | TGI [17]: 2.06 µM | TGI [18]: 5.23 µM | TGI [19]: > 100 µM | TGI [20]: 5.93 µM | TGI [21]: 4.76 µM | TGI [23]: 5.54 µM | TGI [24]: 6.75 µM | TGI [25]: 6.93 µM | TGI [26]: 3.84 µM | TGI [27]: 9.19 µM | TGI [28]: 6.65 µM | TGI [30]: 9.92 µM | TGI [32]: 15.5 µM | TGI [33]: 12.3 µM | TGI [34]: 17.2 µM | TGI [35]: 6.97 µM | TGI [36]: 3.52 µM | TGI [54]: 5.3 µM | TGI [55]: 4.63 µM | TGI [38]: 3.17 µM | TGI [39]: 4.35 µM | TGI [42]: 12.8 µM | TGI [43]: 12.1 µM | TGI [44]: 7.8 µM | TGI [56]: 9.48 µM | TGI [57]: 7.65 µM | TGI [45]: 17.5 µM | TGI [46]: 5.5 µM | TGI [47]: 5.68 µM | TGI [49]: 3.43 µM | TGI [50]: 7.25 µM | TGI [51]: 6.44 µM
